In the NIST ThermoML archive (doi:10.1021/je5010214):

Settings: Liquid, Vibrating tube method

CC(C)CO [2-methyl-1-propanol]
Settings | mass density [kg/m3]
313.15 K, 14927 kPa | 799.577
313.15 K, 17845 kPa | 801.775
313.15 K, 20040 kPa | 803.389
313.15 K, 21942 kPa | 804.76
313.15 K, 24894 kPa | 806.85
313.15 K, 28132 kPa | 809.095
313.15 K, 29974 kPa | 810.333
313.15 K, 32058 kPa | 811.716
313.15 K, 35162 kPa | 813.664
313.15 K, 37952 kPa | 815.444
313.15 K, 40011 kPa | 816.732
313.15 K, 41939 kPa | 817.878
313.15 K, 45098 kPa | 819.95
313.15 K, 47966 kPa | 821.512
313.15 K, 49918 kPa | 822.65
313.15 K, 52024 kPa | 823.857
313.15 K, 54951 kPa | 825.557
313.15 K, 58062 kPa | 827.336
313.15 K, 60202 kPa | 828.515
313.15 K, 65050 kPa | 831.15
313.15 K, 66082 kPa | 831.7
313.16 K, 33053 kPa | 812.371
313.16 K, 33131 kPa | 812.356
313.16 K, 34040 kPa | 812.94
313.16 K, 62187 kPa | 829.599
318.15 K, 368.3 kPa | 783.457
318.15 K, 589.4 kPa | 783.667
318.15 K, 9887.6 kPa | 791.657
318.15 K, 33065 kPa | 808.852
318.15 K, 33128 kPa | 808.894
318.15 K, 35190 kPa | 810.134
318.15 K, 48088 kPa | 818.249
318.15 K, 52184 kPa | 820.67
318.15 K, 60194 kPa | 825.273
318.15 K, 62260 kPa | 826.409
318.15 K, 65194 kPa | 828.017
318.15 K, 66060 kPa | 828.484
318.16 K, 128.5 kPa | 783.253
318.16 K, 858.2 kPa | 783.902
318.16 K, 1069.5 kPa | 784.105
318.16 K, 1979.1 kPa | 784.923
318.16 K, 2997.4 kPa | 785.79
318.16 K, 4942.6 kPa | 787.513
318.16 K, 6987.2 kPa | 789.27
318.16 K, 8967.5 kPa | 790.929
318.16 K, 11870 kPa | 793.265
318.16 K, 14863 kPa | 795.639
318.16 K, 17735 kPa | 797.848
318.16 K, 19860 kPa | 799.438
318.16 K, 21987 kPa | 801.004
318.16 K, 25193 kPa | 803.357
318.16 K, 27823 kPa | 805.216
318.16 K, 30119 kPa | 806.799
318.16 K, 32145 kPa | 808.205
318.16 K, 34164 kPa | 809.488
318.16 K, 38074 kPa | 812.009
318.16 K, 40048 kPa | 813.265
318.16 K, 41997 kPa | 814.496
318.16 K, 45096 kPa | 816.426
318.16 K, 50173 kPa | 819.491
318.16 K, 55235 kPa | 822.46
318.16 K, 58075 kPa | 824.084
323.15 K, 62.1 kPa | 778.89
323.15 K, 338 kPa | 779.159
323.15 K, 557.5 kPa | 779.374
323.15 K, 917.3 kPa | 779.697
323.15 K, 2125.4 kPa | 780.833
323.15 K, 3154.8 kPa | 781.778
323.15 K, 5126.4 kPa | 783.557
323.15 K, 7366.8 kPa | 785.517
323.15 K, 9081.6 kPa | 787.01
323.15 K, 10156 kPa | 787.907
323.15 K, 12167 kPa | 789.544
323.15 K, 15030 kPa | 791.876
323.15 K, 18076 kPa | 794.274
323.15 K, 19932 kPa | 795.694
323.15 K, 22079 kPa | 797.333
323.15 K, 25085 kPa | 799.541
323.15 K, 28006 kPa | 801.644
323.15 K, 30029 kPa | 803.084
323.15 K, 31969 kPa | 804.431
